Data taken from US20260258084A1, “New Peptides as Selective IL-23 Receptor Antagonists” (Sanofi, priority 2022, published 2026).
≈ marks a conversion by molar mass, not a printed value. Like-named read-outs stand apart in the source and are kept apart here. Starred links: 1 amine or outer side, 2 acyl side, 3 side chain; linkers in the order of their positions; H or OH if unused. Positions of bridges follow the written chain, without caps; N, C: chain ends. Non-standard residues stand in square brackets, D forms with d. Residues, ends and D or L forms follow the SMILES beside them. *: point of attachment. X3 = CN(CCCCC(=O)N[C@@H](CS[*:2])C(=O)[*:1])[*:3]; X1 = O=C(CCCCN[*:3])N[C@@H](CS[*:2])C(=O)[*:1]; αMeLys(Me2) = CN(C)CCCC[C@](C)(N)C(=O)O; X2 = CN(C)[C@@H](CCCCN[*:1])C(=O)[*:2]; 2Nal = N[C@@H](Cc1ccc2ccccc2c1)C(=O)O; AEF = NCCOc1ccc(C[C@H](N)C(=O)O)cc1; 3Pal = N[C@@H](Cc1cccnc1)C(=O)O; X4 = CN(CCCCCC(=O)[*:2])[*:1]; αMeL = CC(C)C[C@](C)(N)C(=O)O; Thp = NC1(C(=O)O)CCOCC1; Me2NCH2CH2 = CN(C)CC*; Aib = CC(C)(N)C(=O)O; Ahx = NCCCCCC(=O)O; Ava = NCCCCC(=O)O; Sar = CNCC(=O)O

Columns and labels:
[1] = target: T1, human interleukin-23 receptor (recombinant human IL-23R-Fc chimera) (Homo sapiens, UniProt Q5VWK5); experiment: Human ELISA IL23/IL23R (assay for specific human IL23R antagonists); format: binding; details: Table 10; read-out: Human ELISA IL23/IL23R IC50
T1 construct: Fc (IgG Fc fusion)
Procedure, shortened: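 Competition format: peptide dilutions compete for IL23R-Fc chimera (0.1 μg/ml final, 60 min, room temperature) binding to immobilized human IL23 coated at […] overnight at 4 °C. Read-out is fluorogenic HRP signal from goat anti-hu-IgG1 detecting captured receptor.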

[2] = tested on: IL-23 induced STAT3 signaling in HEK-Blue™ IL-23 cells; experiment: IL-23 induced STAT3 signaling in HEK-Blue IL-23 cells (SEAP reporter); format: cell-based; details: human IL23 0.25 ng/ml, read-out: pSTAT3
Procedure, shortened: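 Secreted SEAP, read at OD 620-655 nm after 45 min QUANTI-Blue development, reports STAT3 activation. Beforehand, cells were exposed to peptide dilutions for 60 min at 37 °C and then to 0.25 ng/ml final human IL-23 overnight, at 10,000 cells/well.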

[3] = Solubility testing of peptides at different pH; format: physicochemical; details: target concentration 1 mg/ml, 2 hours agitation
Procedure, shortened: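 Four buffers were used: 50 mM HCl pH 1.2 and 50 mM phosphate at pH 6.5, 7.4 and 9.0, each receiving dried-down compound at a 1 mg/mL target. After 2 h gentle shaking and 0.45 μm filtration, UV peak areas were compared with a DMSO standard curve of known concentration, allowing for extinction coefficients.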

Pepsin = tested on: T2, Pepsin; experiment: Protease stability in simulated gastric fluid (Pepsin-SGF, FaSSGF); format: in vitro ADME; details: simulated gastric fluid with pepsin (Pepsin-SGF), 60 min, 1 μM peptide, 37° C., read-out: FaSSGF 60 (min), remaining percent of peptide
T2 construct: purchased Merck Millipore
Procedure, shortened: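 LCMS/MS peak areas, normalised to the time-0 sample as 100%, give percent remaining. Conditions: 37° C incubation of 1 μM final peptide in simulated gastric fluid with pepsin; ethanol/0.1% HCOOH quench at 0, 60, 120, 240 min.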

Pancreatin = experiment: Protease stability in simulated intestinal fluid (Pancreatin-SIF, FaSSIF); format: in vitro ADME; details: 1 μM peptide, 37° C.; for remaining at 1 h, 1 µM: 60 min, read-out: FaSSIF 60 (min), remaining percent of peptide; for remaining at 2 h, 1 µM: 120 min, read-out: FaSSIF 120 (min), remaining percent of peptide; for remaining at 4 h, 1 µM: 240 min, read-out: FaSSIF 240 (min), remaining percent of peptide
Procedure, shortened: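 LC-MS/MS peak areas at 0, 60, 120 and 240 min, normalised to time 0 as 100%, give percent remaining. Reactions used 1 μM final peptide at 37° C in pancreatin-SIF (1 mg pancreatin in 10 mL SIF concentrate) and were stopped with ethanol containing 0.1% HCOOH.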

[4] = 50 mM HCl buffer, 50 mM HCl pH 1.2, read-out: Solubility Buffer pH 1.2
[5] = 50 mM phosphate buffer pH 6.5, read-out: Solubility Buffer pH 6.5
[6] = 50 mM phosphate buffer pH 7.4, read-out: Solubility Buffer pH 7.4
[7] = 50 mM phosphate buffer pH 9.0, read-out: Solubility Buffer pH 9.0

Row | SMILES | IC50 [1] [nM] | IC50 [2] [nM] | solubility at 2 h [3, 4] [µg/mL] | solubility at 2 h [3, 5] [µg/mL] | solubility at 2 h [3, 6] [µg/mL] | solubility at 2 h [3, 7] [µg/mL] | remaining at 1 h, 1 µM (Pepsin) [%] | remaining at 1 h, 1 µM (Pancreatin) [%] | remaining at 2 h, 1 µM (Pancreatin) [%] | remaining at 4 h, 1 µM (Pancreatin) [%]
1 | CC(C)C[C@@H](NC(=O)[C@H](CC(N)=O)NC(=O)[C@@H]1CC(=O)N(C)CCCCCC(=O)N[C@H]2CSSC[C@H](NC(=O)[C@H](CCC(N)=O)NC(=O)[C@H](Cc3c[nH]c4ccccc34)NC(=O)[C@H]([C@@H](C)O)NC(=O)[C@H](CC(N)=O)NC2=O)C(=O)N[C@@H](Cc2ccc(OCCN(C)C)cc2)C(=O)N[C@@H](Cc2ccc3ccccc3c2)C(=O)N[C@@](C)(CC(C)C)C(=O)N1)C(N)=O [compound 40] ([X4]CNTWQCY(Me2NCH2CH2)[2Nal][αMeL]DN[dL]-NH2; disulfide 2-7; lactam N-11) | 1 | 50.8 | < 10 | < 10 | < 10 | < 10 | 12 | 77 | 70 | 54
2 | CC(=O)N[C@H]1CCCCNC(=O)[C@@H]2CSSC[C@H](NC(=O)[C@H](CCC(N)=O)NC(=O)[C@H](Cc3c[nH]c4ccccc34)NC1=O)C(=O)N[C@@H](Cc1ccc(OCCN)cc1)C(=O)N[C@@H](Cc1ccc3ccccc3c1)C(=O)N[C@@](C)(CC(C)C)C(=O)N[C@H](C(=O)N[C@@H](CC(N)=O)C(=O)N[C@@H](CC(N)=O)C(N)=O)CCC(=O)N(C)CCCCC(=O)N2 [compound 14] (Ac-KWQC[AEF][2Nal][αMeL]ENN-NH2; linker 1-4-8 via X3) | 0.36 | 18.7 | 50 (≈ 29.6 µM) | 30 (≈ 17.8 µM) | 20 (≈ 11.8 µM) | < 10 | 72 | 83 | 68 | 49
3 | CC(=O)N[C@H]1CCCCNC(=O)[C@@H]2CSSC[C@H](NC(=O)[C@H](CCC(N)=O)NC(=O)[C@H](Cc3c[nH]c4ccccc34)NC1=O)C(=O)N[C@@H](Cc1ccc(OCCN)cc1)C(=O)N[C@@H](Cc1ccc3ccccc3c1)C(=O)NC1(CCOCC1)C(=O)N[C@H](C(=O)N[C@@H](CC(N)=O)C(=O)NCC(N)=O)CCC(=O)N(C)CCCCC(=O)N2 [compound 16] (Ac-KWQC[AEF][2Nal][Thp]ENG-NH2; linker 1-4-8 via X3) | 0.33 | 32.1 | ≥ 1070 | ≥ 950 | ≥ 1000 | 810 (≈ 496 µM) | 62 | 83 | 67 | 50
4 | CC(=O)N[C@H]1CCCCNC(=O)[C@@H]2CSSC[C@H](NC(=O)[C@H](CCC(N)=O)NC(=O)[C@H](Cc3c[nH]c4ccccc34)NC1=O)C(=O)N[C@@H](Cc1ccc(OCCN(C)C)cc1)C(=O)N[C@@H](Cc1ccc3ccccc3c1)C(=O)NC1(CCOCC1)C(=O)N[C@H](C(=O)N[C@@H](C)C(=O)N[C@H](CC(C)C)C(N)=O)CCC(=O)NCCCCC(=O)N2 [compound 33] (Ac-KWQCY(Me2NCH2CH2)[2Nal][Thp]EA[dL]-NH2; linker 1-4-8 via X1) | 0.56 | 53.8 | ≥ 1000 | ≥ 890 | 640 (≈ 386 µM) | 130 (≈ 78.4 µM) | 100 | 100 | 100 | 85
5 | CC(C)C[C@]1(C)NC(=O)[C@H](Cc2ccc3ccccc3c2)NC(=O)[C@H](Cc2ccc(OCCN(C)C)cc2)NC(=O)[C@@H]2CSSC[C@H](NC(=O)CCCCNC(=O)CC[C@@H](C(=O)N[C@@H](CC(N)=O)C(=O)N[C@@H](CC(N)=O)C(N)=O)NC1=O)C(=O)N[C@@H](CC(N)=O)C(=O)N[C@@H]([C@@H](C)O)C(=O)N[C@@H](Cc1c[nH]c3ccccc13)C(=O)N[C@@H](CCC(N)=O)C(=O)N2 [compound 27] ([Ava]CNTWQCY(Me2NCH2CH2)[2Nal][αMeL]ENN-NH2; disulfide 2-7; lactam N-11) | 0.4 | 1.71 | ≥ 890 | ≥ 870 | 810 (≈ 463 µM) | 270 (≈ 154 µM) | 82 | 81 | 82 | 73
6 | CC(=O)N[C@H]1CCCCNC(=O)[C@@H]2CSSC[C@H](NC(=O)[C@H](CCC(N)=O)NC(=O)[C@H](Cc3c[nH]c4ccccc34)NC1=O)C(=O)N[C@@H](Cc1ccc(OCCN)cc1)C(=O)N[C@@H](Cc1ccc3ccccc3c1)C(=O)N[C@@](C)(CC(C)C)C(=O)N[C@H](C(=O)N[C@@H](C)C(=O)NCC(N)=O)CCC(=O)N(C)CCCCC(=O)N2 [compound 18] (Ac-KWQC[AEF][2Nal][αMeL]EAG-NH2; linker 1-4-8 via X3) | 0.71 | 69.5 | 10 (≈ 6.29 µM) | < 10 | < 10 | < 10 | 60 | 81 | 76 | 76
7 | CC(=O)NCCCC[C@@H]1NC(=O)[C@H](Cc2c[nH]c3ccccc23)NC(=O)[C@@H](N(C)C)CCCCNC(=O)[C@@H]2CSSC[C@H](NC1=O)C(=O)N[C@@H](Cc1ccc(OCCN(C)C)cc1)C(=O)N[C@@H](Cc1ccc3ccccc3c1)C(=O)N[C@@](C)(CCCCN(C)C)C(=O)N[C@H](C(=O)N[C@@H](CC(N)=O)C(=O)N[C@@H](Cc1cccnc1)C(=O)N(C)CC(N)=O)CCC(=O)NCCCCC(=O)N2 [compound 36] ([Ava]C[X2]WK(Ac)CY(Me2NCH2CH2)[2Nal][αMeLys(Me2)]EN[3Pal][Sar]-NH2; disulfide 2-6; lactam N-10) | 0.5 | 13.9 | ≥ 1010 | ≥ 1100 | ≥ 1080 | ≥ 1150 | 95 | 97 | 93 | 92
8 | COc1ccc(C[C@@H]2NC(=O)[C@@H]3CSSC[C@H](NC(=O)CCC(=O)NCCCC[C@@H](C(=O)N[C@@H](CC(N)=O)C(=O)N[C@@H](CC(N)=O)C(N)=O)NC(=O)C(C)(C)NC(=O)[C@H](Cc4ccc5ccccc5c4)NC2=O)C(=O)N[C@@H](CC(N)=O)C(=O)N[C@@H]([C@@H](C)O)C(=O)N[C@@H](Cc2c[nH]c4ccccc24)C(=O)N[C@@H](CCC(N)=O)C(=O)N3)cc1 [compound 11] | 0.7 | 53.5 | 120 (≈ 72.8 µM) | 100 (≈ 60.6 µM) | 90 (≈ 54.6 µM) | 80 (≈ 48.5 µM) | 2 | 80 | 76 | 65
9 | C[C@@H](O)[C@@H]1NC(=O)[C@H](CC(N)=O)NC(=O)[C@@H]2CSSC[C@H](NC(=O)[C@H](CCC(N)=O)NC(=O)[C@H](Cc3c[nH]c4ccccc34)NC1=O)C(=O)N[C@@H](Cc1ccc(OCCN)cc1)C(=O)N[C@@H](Cc1ccc3ccccc3c1)C(=O)NC(C)(C)C(=O)N[C@H](C(=O)N[C@@H](CC(N)=O)C(=O)NCC(N)=O)CC(=O)NCCCCCC(=O)N2 [compound 9] ([Ahx]CNTWQC[AEF][2Nal][Aib]DNG-NH2; disulfide 2-7; lactam N-11) | 0.44 | 65 | ≥ 1040 | ≥ 1060 | ≥ 960 | 750 (≈ 463 µM) | 2 | 102 | 100 | 85
